Measurements taken from patent publication EP4768499A1, “MACROCYCLIC PEPTIDE COMPOUND HAVING CELL MEMBRANE PERMEABILITY AND METABOLIC STABILITY, AND LIBRARY CONTAINING SAME” (Chugai Seiyaku Kabushiki Kaisha, priority 2023, dated 2025).
Starred links: 1 amine or outer side, 2 acyl side, 3 side chain; linkers in the order of their positions; H or OH if unused. Positions of bridges follow the written chain, without caps; N, C: chain ends. Non-standard residues stand in square brackets, D forms with d. Residues, ends and D or L forms follow the SMILES beside them. *: point of attachment. NMeF = CN[C@@H](Cc1ccccc1)C(=O)O; NMeI = CC[C@H](C)[C@H](NC)C(=O)O; hPhe = N[C@@H](CCc1ccccc1)C(=O)O; NMeβAla = CN(CCC(=O)[*:2])[*:1]; NMeD = CN[C@@H](CC(=O)O)C(=O)O; NMeL = CN[C@@H](CC(C)C)C(=O)O; dNMeV = CN[C@@H](C(=O)O)C(C)C; NMeV = CN[C@H](C(=O)O)C(C)C; NMeAbu = CC[C@H](NC)C(=O)O; NMeA = CN[C@@H](C)C(=O)O; Piperidide = C1CCN(*)CC1; Abu = CC[C@H](N)C(=O)O; NBuGly = CCCCNCC(=O)O; Sar = CNCC(=O)O; tBu = CC(C)(C)*

Experiments:
Caco-2 cells = test: Membrane permeability test using Caco-2 cells with preincubation; assay type: in vitro ADME; settings: Caco-2 cells, preincubation 20 to 24 hours; apical FaSSIF/HBSS 1% DMSO pH 6.0, basal HBSS 4% BSA pH 7.4; basal sample at 180 minutes
[1] = as above; assay type: in vitro ADME; settings: Caco-2; preincubation 20 to 24 hours; Apical FaSSIF/HBSS pH 6.0, Basal HBSS 4% BSA pH 7.4; 180 minutes; read-out: Caco2 Papp
[2] = Metabolic stability test: liver microsomal stability assay; assay type: in vitro ADME, mouse; settings: mouse liver microsomes 0.5 mg protein/mL, compound 1 µM; for microsomal CLint at 1 µM: male, pH 7.4, presence of NADPH, read-out: Mouse Hepatic Microsome CLh,int NADPH(+); for Mouse Hepatic Microsome CLh,int NADPH(-): absence of NADPH

Row | SMILES | Caco2 Papp (10^-6 cm/sec) (Caco-2 cells) | Papp A→B [1] [×10⁻⁶ cm/s] | microsomal CLint at 1 µM [2] [µL/min/mg] | Mouse Hepatic Microsome CLh,int NADPH(-) [2] [µL/min/mg Protein]
1 | CCCCN1CC(=O)N(C)[C@@H](Cc2ccccc2)C(=O)N[C@@H](COC(C)(C)C)C(=O)N(C)[C@@H](CC(C)C)C(=O)N(C)[C@@H](CC)C(=O)N(C)[C@@H](C)C(=O)N[C@@H]([C@@H](C)CC)C(=O)N(C)[C@@H](C(C)C)C(=O)N[C@@H](C(C)C)C(=O)N(C)[C@H](C(=O)N2CCCCC2)CC(=O)N(C)CCC(=O)N(C)[C@@H](CC(C)C)C(=O)N[C@@H]([C@@H](C)CC)C(=O)N(C)[C@@H](Cc2ccccc2)C1=O [pd082] ([NMeβAla][NMeL]I[NMeF][NBuGly][NMeF]S(tBu)[NMeL][NMeAbu][NMeA]I[NMeV]V[NMeD]-Piperidide; lactam N-14) | 0.03 10^-6 cm/sec | 0.03 | 32.6 | 38.5
2 | CC[C@@H]1NC(=O)[C@H](CC(C)C)N(C)C(=O)[C@H](C)NC(=O)[C@@H]2CCCN2C(=O)[C@H](CC)N(C)C(=O)[C@H](CC(C)C)N(C)C(=O)CN(C)C(=O)[C@H](Cc2ccccc2)N(C)C(=O)[C@H]([C@@H](C)CC)NC(=O)CCN(C)C(=O)[C@H](C(C)C)N(C)C(=O)[C@H](COC(C)(C)C)NC(=O)[C@H](CC(C)C)N(C)C(=O)C[C@@H](C(=O)N2CCCCC2)N(C)C1=O [pd083] ([NMeL]S(tBu)[NMeV][NMeβAla]I[NMeF][Sar][NMeL][NMeAbu]PA[NMeL][Abu][NMeD]-Piperidide; lactam N-14) | 0.04 10^-6 cm/sec | 0.04 | 11.4 | 7.3
3 | CC[C@H](C)[C@@H]1NC(=O)[C@H](CC(C)C)N(C)C(=O)[C@H](CC(C)C)N(C)C(=O)[C@H](C)N(C)C(=O)C[C@@H](C(=O)N2CCCCC2)N(C)C(=O)[C@H](C)N(C)C(=O)[C@H](CC(C)C)NC(=O)[C@H](C(C)C)N(C)C(=O)[C@H](CC(C)C)N(C)C(=O)CNC(=O)[C@H]([C@@H](C)CC)N(C)C(=O)[C@H](Cc2ccccc2)N(C)C(=O)[C@H](C)NC(=O)[C@H](Cc2ccccc2)N(C)C1=O [pd084] ([NMeA][NMeL][NMeL]I[NMeF]A[NMeF][NMeI]G[NMeL][NMeV]L[NMeA][NMeD]-Piperidide; lactam N-14) | 0.21 10^-6 cm/sec | 0.21 | 39 | 37.8
4 | CC[C@H](C)[C@@H]1NC(=O)[C@H](CC(C)C)N(C)C(=O)CN(C)C(=O)C[C@@H](C(=O)N2CCCCC2)N(C)C(=O)CNC(=O)[C@H](C)N(C)C(=O)[C@H](CC)N(C)C(=O)[C@H](C(C)C)N(C)C(=O)[C@H](C)N(C)C(=O)[C@H](Cc2ccccc2)N(C)C(=O)[C@H](CC(C)C)NC(=O)[C@H](Cc2ccccc2)N(C)C(=O)[C@H](C(C)C)NC(=O)[C@H](CC(C)C)N(C)C1=O [pd085] ([Sar][NMeL]I[NMeL]V[NMeF]L[NMeF][NMeA][NMeV][NMeAbu][NMeA]G[NMeD]-Piperidide; lactam N-14) | 0.17 10^-6 cm/sec | 0.17 | 26.9 | 28.9
5 | CC(C)C[C@@H]1NC(=O)[C@H](CC(C)C)N(C)C(=O)[C@H]([C@@H](C)O)NC(=O)[C@H](C(C)C)N(C)C(=O)[C@H](Cc2ccccc2)N(C)C(=O)[C@@H](C(C)C)NC(=O)C[C@@H](C(=O)N2CCCCC2)N(C)C(=O)[C@H](C)N(C)C(=O)[C@H](Cc2ccccc2)N(C)C(=O)[C@H](C)NC(=O)[C@H](COC(C)(C)C)NC(=O)[C@H](CC(C)C)N(C)C(=O)[C@H](C(C)C)NC(=O)CN(C)C1=O [pd086] ([dV][NMeF][NMeV]T[NMeL]L[Sar]V[NMeL]S(tBu)A[NMeF][NMeA][NMeD]-Piperidide; lactam N-14) | 0.06 10^-6 cm/sec | 0.06 | 20.1 | 20.0
6 | CCCCN1CC(=O)N(C)[C@@H](CC(C)C)C(=O)N[C@@H]([C@@H](C)O)C(=O)N(C)[C@@H](C)C(=O)N2CCC[C@H]2C(=O)N[C@@H](CCc2ccccc2)C(=O)N[C@@H]([C@@H](C)CC)C(=O)N(C)[C@H](C(=O)N2CCCCC2)CC(=O)N(C)[C@@H](CC(C)C)C(=O)N[C@@H](COC(C)(C)C)C(=O)N(C)[C@@H](C(C)C)C(=O)N[C@@H]([C@@H](C)CC)C(=O)N2CCC[C@H]2C(=O)N[C@@H](C(C)C)C1=O [pd087] ([NMeL]S(tBu)[NMeV]IPV[NBuGly][NMeL]T[NMeA]P[hPhe]I[NMeD]-Piperidide; lactam N-14) | <0.07 10^-6 cm/sec | < 0.07 | 31.8 | 29.0

Other lines, results leading:

Row | Caco2 Papp (10^-6 cm/sec) (Caco-2 cells) | Papp A→B [1] [×10⁻⁶ cm/s] | microsomal CLint at 1 µM [2] [µL/min/mg] | Mouse Hepatic Microsome CLh,int NADPH(-) [2] [µL/min/mg Protein] | SMILES
7 | 0.11 10^-6 cm/sec | 0.11 | 20.9 | 24.2 | CC[C@@H]1NC(=O)[C@H](C(C)C)N(C)C(=O)[C@H](C(C)C)NC(=O)[C@H](C)N(C)C(=O)CCN(C)C(=O)[C@H](CCc2ccccc2)NC(=O)[C@H](CC(C)C)N(C)C(=O)[C@H]([C@@H](C)CC)NC(=O)CN(C)C(=O)C[C@@H](C(=O)N2CCCCC2)N(C)C(=O)[C@H](CC(C)C)NC(=O)[C@H](CC(C)C)N(C)C(=O)[C@H]([C@@H](C)O)NC(=O)[C@H](Cc2ccccc2)N(C)C1=O [pd088] ([Sar]I[NMeL][hPhe][NMeβAla][NMeA]V[NMeV][Abu][NMeF]T[NMeL]L[NMeD]-Piperidide; lactam N-14)
8 | <0.11 10^-6 cm/sec | < 0.11 | 29 | 29.8 | CC[C@@H]1NC(=O)[C@H](Cc2ccccc2)N(C)C(=O)[C@H](COC(C)(C)C)NC(=O)[C@H](CC(C)C)N(C)C(=O)[C@H](C)N(C)C(=O)[C@H]([C@@H](C)O)NC(=O)[C@H](CC(C)C)N(C)C(=O)[C@H](C(C)C)N(C)C(=O)[C@H](CCc2ccccc2)NC(=O)[C@H](CC(C)C)N(C)C(=O)[C@@H](C(C)C)N(C)C(=O)C[C@@H](C(=O)N2CCCCC2)N(C)C(=O)[C@H](CC(C)C)NC(=O)[C@H](C(C)C)N(C)C1=O [pd089] ([dNMeV][NMeL][hPhe][NMeV][NMeL]T[NMeA][NMeL]S(tBu)[NMeF][Abu][NMeV]L[NMeD]-Piperidide; lactam N-14)
9 | <0.12 10^-6 cm/sec | < 0.12 | 45 | 23.9 | CC[C@@H]1NC(=O)[C@H](CC(C)C)N(C)C(=O)[C@H]([C@@H](C)O)NC(=O)[C@H](C(C)C)N(C)C(=O)[C@H](C)NC(=O)[C@H](Cc2ccccc2)N(C)C(=O)[C@@H](C(C)C)NC(=O)C[C@@H](C(=O)N2CCCCC2)N(C)C(=O)CN(C)C(=O)[C@H](Cc2ccccc2)N(C)C(=O)[C@H](C)N(C)C(=O)[C@H](COC(C)(C)C)NC(=O)[C@H](CC(C)C)N(C)C(=O)CN(C)C1=O [pd090] ([dV][NMeF]A[NMeV]T[NMeL][Abu][Sar][NMeL]S(tBu)[NMeA][NMeF][Sar][NMeD]-Piperidide; lactam N-14)
